This passage reports EC50 results from paper PMC9989926, “Zebrafish and medaka T1R (taste receptor type 1) proteins mediate highly sensitive recognition of L‐proline” (FEBS Open Bio, 2023).

Experiment [1] concerns the target T1, mfT1R2a/mfT1R3 (Oryzias latipes, UniProt Q2MHK2+Q2MHK5).
T1 construct: gene TAS1R2a; entire coding regions, stably co-expressed with chimeric G-protein G16gust44 in Flp-In 293 cells; heterodimer; with Taste receptor type 1 member 3
Description: FLIPR Calcium […] cell-based calcium assay, FlexStation […].

Experiment [2] deals with T2, zfT1R2a/zfT1R3 (Danio rerio, UniProt Q2MHK9+Q2MHL1, Q2MHK9:Y247H).
T2 construct: gene tas1r2.1; entire coding regions, stably co-expressed with chimeric G-protein G16gust44 in Flp-In 293 cells; heterodimer; T1R3 clone Y247H (C741T); with Taste receptor type 1 member 3
T2 sequence (Q2MHL1 26-825): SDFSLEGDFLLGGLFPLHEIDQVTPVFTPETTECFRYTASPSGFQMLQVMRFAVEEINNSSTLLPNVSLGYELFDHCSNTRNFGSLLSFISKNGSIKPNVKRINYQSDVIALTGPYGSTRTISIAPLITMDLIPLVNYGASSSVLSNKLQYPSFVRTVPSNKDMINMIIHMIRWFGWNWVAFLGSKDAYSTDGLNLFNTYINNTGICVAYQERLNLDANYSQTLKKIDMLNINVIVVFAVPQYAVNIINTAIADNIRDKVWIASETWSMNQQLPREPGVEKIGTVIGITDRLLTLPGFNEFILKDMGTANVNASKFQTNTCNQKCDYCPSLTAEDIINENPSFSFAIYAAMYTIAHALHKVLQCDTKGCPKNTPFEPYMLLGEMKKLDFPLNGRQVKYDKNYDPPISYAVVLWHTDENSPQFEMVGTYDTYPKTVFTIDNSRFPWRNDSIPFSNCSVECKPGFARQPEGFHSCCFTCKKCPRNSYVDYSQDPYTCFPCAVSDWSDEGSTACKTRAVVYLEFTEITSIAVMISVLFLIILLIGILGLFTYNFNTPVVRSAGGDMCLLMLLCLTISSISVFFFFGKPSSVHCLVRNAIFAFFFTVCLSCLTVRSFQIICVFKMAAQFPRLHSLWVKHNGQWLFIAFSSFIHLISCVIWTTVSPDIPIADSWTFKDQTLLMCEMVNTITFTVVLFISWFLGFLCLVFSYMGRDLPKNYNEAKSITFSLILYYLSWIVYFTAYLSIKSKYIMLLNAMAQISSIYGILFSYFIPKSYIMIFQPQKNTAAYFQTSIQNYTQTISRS
T2 sequence (Q2MHK9 25-850 Y247H): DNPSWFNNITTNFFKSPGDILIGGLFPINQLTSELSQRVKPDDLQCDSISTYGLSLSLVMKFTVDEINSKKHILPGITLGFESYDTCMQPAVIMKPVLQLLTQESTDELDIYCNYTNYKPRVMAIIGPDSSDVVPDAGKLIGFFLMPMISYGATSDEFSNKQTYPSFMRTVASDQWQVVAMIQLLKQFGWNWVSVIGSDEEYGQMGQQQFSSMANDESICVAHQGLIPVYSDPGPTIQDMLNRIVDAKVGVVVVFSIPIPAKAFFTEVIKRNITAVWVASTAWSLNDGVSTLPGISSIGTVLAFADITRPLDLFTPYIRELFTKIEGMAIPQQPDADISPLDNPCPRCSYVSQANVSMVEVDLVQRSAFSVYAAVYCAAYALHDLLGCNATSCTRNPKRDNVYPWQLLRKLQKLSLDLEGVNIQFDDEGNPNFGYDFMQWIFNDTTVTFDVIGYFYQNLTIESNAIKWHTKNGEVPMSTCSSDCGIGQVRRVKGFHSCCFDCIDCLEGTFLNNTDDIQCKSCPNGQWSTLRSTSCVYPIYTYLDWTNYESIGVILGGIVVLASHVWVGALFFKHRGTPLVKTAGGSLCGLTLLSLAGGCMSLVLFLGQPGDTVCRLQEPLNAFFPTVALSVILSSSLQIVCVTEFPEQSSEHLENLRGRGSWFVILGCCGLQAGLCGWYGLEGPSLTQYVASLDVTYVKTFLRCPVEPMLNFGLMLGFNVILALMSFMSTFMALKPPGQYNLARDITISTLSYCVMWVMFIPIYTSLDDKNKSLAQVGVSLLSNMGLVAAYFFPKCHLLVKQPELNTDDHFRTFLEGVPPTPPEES
Described as above.

Experiment [3] deals with T3, zfT1R2b/zfT1R3 (Danio rerio, UniProt A4PHQ8+Q2MHK9, Q2MHK9:Y247H).
T3 construct: gene tas1r2.2; entire coding regions, stably co-expressed with chimeric G-protein G16gust44 in Flp-In 293 cells; heterodimer; T1R3 clone Y247H (C741T); with Taste receptor type 1 member 3
T3 sequence (A4PHQ8 18-823): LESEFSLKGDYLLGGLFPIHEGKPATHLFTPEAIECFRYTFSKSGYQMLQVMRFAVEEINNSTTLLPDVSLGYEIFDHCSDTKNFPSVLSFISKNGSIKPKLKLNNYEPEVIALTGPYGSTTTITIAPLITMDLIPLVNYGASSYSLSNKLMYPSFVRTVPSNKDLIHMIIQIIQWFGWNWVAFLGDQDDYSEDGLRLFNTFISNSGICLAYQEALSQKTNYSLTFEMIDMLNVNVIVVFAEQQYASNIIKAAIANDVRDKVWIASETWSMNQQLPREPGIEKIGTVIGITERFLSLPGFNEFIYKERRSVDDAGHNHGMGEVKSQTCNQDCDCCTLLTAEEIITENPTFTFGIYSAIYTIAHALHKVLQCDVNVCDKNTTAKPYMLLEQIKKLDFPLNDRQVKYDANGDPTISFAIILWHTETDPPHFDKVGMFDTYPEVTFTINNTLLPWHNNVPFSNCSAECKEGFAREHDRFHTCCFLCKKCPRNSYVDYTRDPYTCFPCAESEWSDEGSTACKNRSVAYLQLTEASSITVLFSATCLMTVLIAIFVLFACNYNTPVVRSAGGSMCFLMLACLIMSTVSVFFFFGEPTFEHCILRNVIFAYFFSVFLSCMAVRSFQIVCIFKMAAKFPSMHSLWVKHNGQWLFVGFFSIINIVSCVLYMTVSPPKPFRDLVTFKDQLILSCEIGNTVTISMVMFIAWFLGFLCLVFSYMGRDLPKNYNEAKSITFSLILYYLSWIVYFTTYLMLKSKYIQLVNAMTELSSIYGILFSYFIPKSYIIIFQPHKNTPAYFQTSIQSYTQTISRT
T3 sequence (Q2MHK9 25-850 Y247H): T2 sequence (Q2MHK9 25-850 Y247H)
The description is as above.

Experiment [4] has as its target T4, mfT1R2b/mfT1R3 (Oryzias latipes, UniProt Q2MHK2+Q2MHK4).
T4 construct: gene TAS1R2b; entire coding regions, stably co-expressed with chimeric G-protein G16gust44 in Flp-In 293 cells; heterodimer; with Taste receptor type 1 member 3
The description is as above.

Experiment [5] has as its target T5, mfT1R2c/mfT1R3 (Oryzias latipes, UniProt Q2MHK2+Q2MHK3, Q2MHK3:V394L).
T5 construct: gene TAS1R2c
Description: cell-based.

As a reminder, the EC50 is the concentration that produces a half-maximal response.

T4 sequence (Q2MHK4 entry or part of it): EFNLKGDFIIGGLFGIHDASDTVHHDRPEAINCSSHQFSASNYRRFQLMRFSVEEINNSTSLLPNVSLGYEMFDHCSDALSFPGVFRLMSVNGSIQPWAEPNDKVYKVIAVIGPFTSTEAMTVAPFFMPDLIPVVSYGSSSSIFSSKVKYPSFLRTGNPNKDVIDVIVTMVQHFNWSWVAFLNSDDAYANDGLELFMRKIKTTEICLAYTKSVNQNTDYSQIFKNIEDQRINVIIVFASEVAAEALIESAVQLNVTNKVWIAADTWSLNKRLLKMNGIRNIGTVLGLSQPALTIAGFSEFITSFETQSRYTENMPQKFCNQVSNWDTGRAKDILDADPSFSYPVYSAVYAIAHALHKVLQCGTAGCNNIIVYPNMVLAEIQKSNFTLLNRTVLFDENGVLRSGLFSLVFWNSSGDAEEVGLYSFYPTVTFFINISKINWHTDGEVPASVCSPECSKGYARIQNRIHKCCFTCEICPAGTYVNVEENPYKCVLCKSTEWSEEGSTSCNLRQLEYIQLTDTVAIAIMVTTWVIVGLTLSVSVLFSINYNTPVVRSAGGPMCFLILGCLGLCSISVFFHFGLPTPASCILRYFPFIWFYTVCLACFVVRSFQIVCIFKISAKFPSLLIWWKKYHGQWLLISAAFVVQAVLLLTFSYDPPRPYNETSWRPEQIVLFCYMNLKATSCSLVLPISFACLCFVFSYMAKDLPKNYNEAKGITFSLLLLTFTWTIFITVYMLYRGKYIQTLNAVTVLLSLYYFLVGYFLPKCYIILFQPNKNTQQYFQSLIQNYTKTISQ
T4 sequence (Q2MHK2 entry or part of it): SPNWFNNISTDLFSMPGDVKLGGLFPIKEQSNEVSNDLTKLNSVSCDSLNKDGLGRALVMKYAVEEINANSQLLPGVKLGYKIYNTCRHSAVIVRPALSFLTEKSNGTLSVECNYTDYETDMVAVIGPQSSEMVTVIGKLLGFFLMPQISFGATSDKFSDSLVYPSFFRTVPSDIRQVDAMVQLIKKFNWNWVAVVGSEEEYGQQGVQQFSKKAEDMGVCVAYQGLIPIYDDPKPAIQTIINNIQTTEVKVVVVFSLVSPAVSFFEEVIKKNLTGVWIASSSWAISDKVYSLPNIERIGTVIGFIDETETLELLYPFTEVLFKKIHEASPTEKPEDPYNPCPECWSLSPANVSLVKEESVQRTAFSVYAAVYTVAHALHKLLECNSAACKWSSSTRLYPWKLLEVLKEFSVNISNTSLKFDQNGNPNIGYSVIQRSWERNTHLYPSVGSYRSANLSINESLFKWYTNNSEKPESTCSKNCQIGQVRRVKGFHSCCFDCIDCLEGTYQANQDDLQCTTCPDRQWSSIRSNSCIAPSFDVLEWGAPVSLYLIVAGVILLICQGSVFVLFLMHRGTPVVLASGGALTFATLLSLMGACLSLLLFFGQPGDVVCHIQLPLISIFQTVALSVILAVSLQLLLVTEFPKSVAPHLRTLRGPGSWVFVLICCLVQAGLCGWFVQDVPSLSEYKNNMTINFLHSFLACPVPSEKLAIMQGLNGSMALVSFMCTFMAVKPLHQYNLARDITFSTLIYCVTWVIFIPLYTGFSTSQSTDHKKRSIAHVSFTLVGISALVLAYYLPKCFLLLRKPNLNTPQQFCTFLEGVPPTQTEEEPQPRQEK
T1 sequence (Q2MHK2 entry or part of it): as above
T1 sequence (Q2MHK5 entry or part of it): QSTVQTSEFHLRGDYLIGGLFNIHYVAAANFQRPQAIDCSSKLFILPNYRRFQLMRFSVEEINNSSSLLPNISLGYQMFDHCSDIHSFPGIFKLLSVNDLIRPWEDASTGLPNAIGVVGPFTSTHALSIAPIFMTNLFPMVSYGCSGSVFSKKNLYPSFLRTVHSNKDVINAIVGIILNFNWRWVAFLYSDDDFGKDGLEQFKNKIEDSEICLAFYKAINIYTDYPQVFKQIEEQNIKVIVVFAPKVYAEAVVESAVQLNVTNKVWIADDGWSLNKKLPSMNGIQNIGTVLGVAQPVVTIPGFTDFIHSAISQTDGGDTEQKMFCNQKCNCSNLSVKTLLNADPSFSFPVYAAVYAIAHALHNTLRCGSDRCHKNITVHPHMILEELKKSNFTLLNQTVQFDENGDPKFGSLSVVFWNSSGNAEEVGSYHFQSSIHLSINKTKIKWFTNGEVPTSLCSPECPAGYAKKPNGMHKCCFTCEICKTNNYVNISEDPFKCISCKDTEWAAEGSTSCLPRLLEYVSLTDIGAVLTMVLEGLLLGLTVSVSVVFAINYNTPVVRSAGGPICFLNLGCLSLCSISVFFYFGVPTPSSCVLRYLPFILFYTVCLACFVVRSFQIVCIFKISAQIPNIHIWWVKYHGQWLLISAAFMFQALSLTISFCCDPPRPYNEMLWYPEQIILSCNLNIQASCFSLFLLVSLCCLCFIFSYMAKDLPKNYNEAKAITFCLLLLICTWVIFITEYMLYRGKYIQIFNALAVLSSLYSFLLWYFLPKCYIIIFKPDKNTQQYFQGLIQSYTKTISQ
T5 sequence (Q2MHK2 entry or part of it): as the sequence (Q2MHK2 entry or part of it) above
T5 sequence (Q2MHK3 entry or part of it V394L): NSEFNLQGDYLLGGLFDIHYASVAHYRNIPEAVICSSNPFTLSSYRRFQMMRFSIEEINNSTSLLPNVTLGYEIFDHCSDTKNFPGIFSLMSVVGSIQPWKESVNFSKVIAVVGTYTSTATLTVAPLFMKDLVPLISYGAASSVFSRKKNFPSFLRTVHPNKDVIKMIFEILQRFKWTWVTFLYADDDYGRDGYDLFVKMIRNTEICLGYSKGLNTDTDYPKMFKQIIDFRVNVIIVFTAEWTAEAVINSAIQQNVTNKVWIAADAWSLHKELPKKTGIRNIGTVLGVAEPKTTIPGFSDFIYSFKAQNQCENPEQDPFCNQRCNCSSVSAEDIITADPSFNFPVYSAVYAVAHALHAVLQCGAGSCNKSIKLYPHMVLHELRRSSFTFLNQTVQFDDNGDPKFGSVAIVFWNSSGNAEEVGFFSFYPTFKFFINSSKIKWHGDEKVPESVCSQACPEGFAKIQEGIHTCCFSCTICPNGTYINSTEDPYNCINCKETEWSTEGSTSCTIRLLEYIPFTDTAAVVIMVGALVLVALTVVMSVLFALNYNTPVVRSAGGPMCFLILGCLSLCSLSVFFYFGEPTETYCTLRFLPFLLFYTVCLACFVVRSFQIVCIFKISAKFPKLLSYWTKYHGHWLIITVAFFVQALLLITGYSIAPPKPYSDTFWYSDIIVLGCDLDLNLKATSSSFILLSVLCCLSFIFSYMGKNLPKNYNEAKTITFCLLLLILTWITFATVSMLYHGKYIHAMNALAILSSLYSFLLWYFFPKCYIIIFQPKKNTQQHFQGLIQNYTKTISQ

Take `NC(=O)CC[C@H](N)C(=O)O` [L-glutamine]: in experiment [1], the EC50 came to 58.8 ± 7.6 µM.

As to `C[C@H](N)C(=O)O` [L-alanine], the EC50 in experiment [1] came to 1230 ± 70 µM; in experiment [2], 220 ± 18 µM; in experiment [3], 2030 ± 150 µM; in experiment [4] it was 1750 ± 140 µM.

Regarding `O=C(O)[C@@H]1CCCN1` [L-proline], the EC50 worked out at 164 ± 36 µM in experiment [2], 1720 ± 350 µM in experiment [3], 3050 ± 220 µM in experiment [4] and 4.43 ± 0.38 µM in experiment [5].
